Measured values as given in PMC10459042, “Synthesis of 1,2,3-Triazole-Containing Methoxylated Cinnamides and Their Antileishmanial Activity against the Leishmania braziliensis Species” (Pharmaceuticals, 2023).
Converted amounts (≈) assume the structure as drawn.

Columns and labels:
[1] = system: Leishmania braziliensis stationary promastigotes; test: In vitro antileishmanial activity against promastigotes (MTT); assay type: cell-based
Experimental: The study was approved by the Committee for the Ethical Handling of Research Animals from the Federal University of Minas Gerais (protocol number 085/2017). Leishmania braziliensis (MHOM/BR/1975/M2904) promastigotes were grown at 24 °C in Schneider’s medium (Sigma-Aldrich, USA) supplemented with 20% heat-inactivated fetal bovine serum (FBS, Sigma-Aldrich, USA) and 20 mmol/L L-glutamine at pH 7.4 [65].
(§1) The in vitro antileishmanial activity was evaluated by incubating the promastigotes or axenic amastigotes (1 × 10^6 cells/well) with the 24 synthetic derivatives (Compounds 5–28; 0 to 600 µg/mL) in 96-well culture plates (Nunc, Nunclon, Roskilde, Denmark) for 48 h at 24 °C. Due to the difficulty in obtaining a high concentration of murine macrophages, the cytotoxicity experiment was evaluated by incubating such cells (5 × 10^5 per mL) with Compound 28 (0 to 600 µg/mL), which presented the best antileishmanial activity, for 48 h at 37 °C in a 5% CO2 environment. AmpB (0 to 10 µg/mL; Sigma-Aldrich, St. Louis, MO, USA) was used as a positive control in both experiments. The cell viability was assessed using the 3-(4.5-dimethylthiazol-2-yl)-2.5-diphenyl tetrazolium bromide (MTT, Sigma-Aldrich, St. Louis, MO, USA) method. The optical density (OD) values were read using a microplate spectrophotometer (Molecular Devices, Spectra Max Plus, San Jose, CA, USA) at 570 nm. Results were entered into Microsoft Excel (version 10.0) spreadsheets, and the 50% Leishmania and macrophage inhibitory concentrations (IC50 and CC50, respectively) were calculated by applying a sigmoidal regression of the dose–response curve. The SI was calculated by dividing the CC50 with the respective IC50 values.

[2] = system: Leishmania braziliensis axenic amastigotes; test: In vitro antileishmanial activity against axenic amastigotes (MTT); assay type: cell-based
Experimental: To obtain the axenic amastigotes, 1 × 10^9 stationary promastigotes were washed three times in sterile phosphate-buffered saline (PBS) and incubated in 5 mL FBS for 48 h at 37 °C. Parasites were washed with cold PBS, and their morphology was evaluated with an optical microscope after Giemsa staining as previously described.
as §1

[3] = Cytotoxicity in mammalian cells (MTT); assay type: cell-based; conditions: mouse; murine macrophages, 48 h at 37 °C in 5% CO2, MTT, mean ± standard deviation
Experimental: as §1

[4] = system: L. braziliensis-infected macrophages; test: Treatment of infected macrophages; assay type: cell-based, Leishmania braziliensis; conditions: 48 h at 37 °C; for Number of Amastigotes per Cell after treatment: untreated 10.3; for Percentage of Infected Macrophages after Treatment: untreated 92.8
Experimental: Murine macrophages (5 × 10^5 cells) were plated on round glass coverslips in 24-well plates in RPMI 1640 medium with added 20% FBS and 20 mmol/L L-glutamine at pH 7.4 and incubated for 24 h at 37 °C in 5% CO2. Promastigotes were added to the wells (at a ratio of 10 parasites per macrophage), and cultures were incubated for 48 h at 37 °C in a 5% CO2 environment. Free parasites were removed by extensive washing with RPMI 1640 medium, and the infected macrophages were treated with Compound 28 or AmpB (0, 1.0, 2.5 and 5.0 µg/mL in both cases) for 48 h at 37 °C in 5% CO2.
(§2) To evaluate the inhibition of infection, promastigotes (5 × 10^6 cells) were first incubated with Compound 28 or AmpB (0, 1.0, 2.5 and 5.0 µg/mL in both cases) for 4 h at 24 °C; these were then used to infect murine macrophages (at a ratio of 10 parasites per macrophage) and incubated for 24 h at 37 °C in 5% CO2. Then, cells were fixed with 4% paraformaldehyde, washed, and stained with Giemsa. The percentage of infected macrophages and the number of recovered amastigotes were determined by counting 200 cells, in triplicate, using an optical microscope.

[5] = system: L. braziliensis promastigotes infecting murine macrophages; test: Inhibition of infection (parasites pre-incubated with compound, then used to infect macrophages); assay type: cell-based, Leishmania braziliensis; conditions: for Number of Amastigotes per Cell using pre-incubated parasites: untreated 8.9; for Percentage of Infected Macrophages Using Pre-Incubated Parasites: untreated 90.5
Experimental: as §2

[6] = parasites pre-incubated with 2.5 µg/mL at 24 °C
[7] = parasites pre-incubated with 5.0 µg/mL at 24 °C

## C[C@@H]1[C@H](O)[C@@H](C)/C=C/C=C/C=C/C=C/C=C/C=C/C=C/[C@H](O[C@@H]2O[C@H](C)[C@@H](O)[C@H](N)[C@@H]2O)C[C@@H]2O[C@](O)(C[C@@H](O)C[C@@H](O)[C@H](O)CC[C@@H](O)C[C@@H](O)CC(=O)O[C@H]1C)C[C@H](O)[C@H]2C(=O)O [Amphotericin B, amphotericin B, reference compound]
[1]; CC50 murine macrophages / IC50 promastigotes
  Selectivity index (SI), ratio CC50/IC50, promastigotes: 9.1
[1]; Leishmania braziliensis, 48 h at 24 °C, MTT, mean ± standard deviation
  IC50: 0.974 ± 0.2 µg/mL (≈ 1.05 µM)
[2]; CC50 murine macrophages / IC50 axenic amastigotes
  Selectivity index (SI), ratio CC50/IC50, axenic amastigotes: 6.8
[2]; Leishmania braziliensis, 48 h, 48 h at 24 °C, MTT, mean ± standard deviation
  IC50: 1.3 ± 0.4 µg/mL (≈ 1.41 µM)
[3]
  CC50 at 48 h: 8.9 ± 0.8 µg/mL (≈ 9.63 µM)
[4]; 1.0 µg/mL
  Number of Amastigotes per Cell after treatment: 4.2
  Percentage of Infected Macrophages after Treatment: 39.1%
[4]; 2.5 µg/mL
  Number of Amastigotes per Cell after treatment: 3.5
  Percentage of Infected Macrophages after Treatment: 27.6%
[4]; 5.0 µg/mL
  Number of Amastigotes per Cell after treatment: 1.8
  Percentage of Infected Macrophages after Treatment: 19.8%
[5]; [6]
  Number of Amastigotes per Cell using pre-incubated parasites: 6.5
  Percentage of Infected Macrophages Using Pre-Incubated Parasites: 67.6%
[5]; [7]
  Number of Amastigotes per Cell using pre-incubated parasites: 5.3
  Percentage of Infected Macrophages Using Pre-Incubated Parasites: 51.4%
